According to patent US9675569B2, “Method for treating a pulmonary disease state in mammals by up regulating indigenous in vivo levels of inflammatory agents in mammalian cells” (priority 2012, dated 2017):

How the values were obtained:
HSV-I infected cell = assay: Viral plaque reduction in HSV-I infected cells; assay type: cell-based; settings: for viral plaque formation decreased: virally infected cells (Example 1)
Description: The primary end points were the levels of IL-8 and IL-1 after treatment with an immunostimulator, pyruvate and the combination of pyruvate and α-ketoisovalerate. […] IL-8 activates neutrophils to increase their numbers at the infected site. […] IL-1 increases inflammation and decreases healing times. […] Viral plaques are a direct measure of viral numbers in infected cells.

[1] = test system: total protein, elastase, IL-6, IL-8, TNF-α; assay: Inhaled sodium pyruvate in cystic fibrosis safety study: sputum inflammatory biomarkers; assay type: in vivo, human; settings: for total proteins, elastase, IL-6, IL-8, and TNF-α: CF subjects
Method: All of the enrolled and dosed subjects were able to provide sputum samples for analysis before and after exposure to study drug (sodium pyruvate for inhalation at 0.5, 1.5, and 5.0 mM levels). The subjects were given 5 ml samples to inhale. Specimens were of good quality for the planned assays.
Samples were divided into two main aliquots after processing. The first aliquot was left untreated to be able to assay for the activity of free elastase. The second aliquot was treated with protease inhibitors pheylmethanesulfonylfluoride (PMSF) and ethylenediamine tetraacetic acid (EDTA) to stop any degradation of the cytokines of interest (IL-6, IL-8, IL-10, IL-17, and IL-23) and total protein.
For IL-10, IL-17 and IL-23, levels on sputum were at or below the limit of detection for the assays (7, 2 and 20 pg/mL respectively). For the other markers (total protein, elastase, IL-6, IL-8, TNF-α) levels detected where within those typically found in cystic fibrosis (CF) patients.

[2] = One week open label home-use trial of sodium pyruvate+saline nasal sprays (Example 5); assay type: in vivo, human
Description: Thirty-nine (39) subjects who were regular nasal spray users due to chronic sinusitis or allergic rhinitis and other sinus diseases were recruited for a one week open label, in home-use trial. Allergic rhinitis and other sinus diseases result in the elevation of certain inflammatory components and the concurrent down regulation of some other inflammatory components. When this happens, infections can occur. The ability to up-regulate these immune components helps balance the nasal immune system to inhibit infections and minimize injury to surrounding tissues. Six (6) different sodium pyruvate+saline combination nasal sprays, based on concentrations of saline and sodium pyruvate, were administered to the subjects, and each of the test products were used by at least six subjects. The subjects used the test nasal sprays at home (two to three sprays; two or three times a day) for seven days, in place of their regular nasal spray.
Prior to, and at the end of the study period, the subjects' nostrils were examined for mucosal fragility, lesions, erythema, and edema using a rhinoscope.
Thirty-eight subjects completed the study. […] The test formula ranged from 0.5 mM solutions to 20 mM solutions. […] In this case we delivered the 20 mM solution nasal solution with sodium pyruvate. […]

[3] = test system: HSV-1, HSV-2 and various rhinoviruses; assay: Tissue culture studies, viral plaques; assay type: cell-based; settings: 10-40 mM concentrations
Method: (§1) This medication is an anti-viral drug used to treat infants and young children who have a severe lung infection caused by a certain virus (respiratory syncytial virus-RSV). Nearly all children become infected with this virus before they are 3 years old. […] This medication is used to treat severe RSV infections that need treatment in a hospital. This medication is given by continuous inhalation, usually for 12 to 18 hours daily for 3 to 7 days or as directed by the doctor. A special machine (small-particle aerosol generator) is used to make a mist, which is then inhaled through the mouth or nose. Chest soreness may occur. Redness/irritation of the nasal cavities and eye or eyelid may also occur. When five (5) mls. of a 10 mM solution of pyruvate was used prior to the administration of this medication; the patient reported that the irritation and chest soreness was eliminated. […] Tissue culture studies with HSV-1, HSV-2 and various rhinoviruses, have shown that 10-40 mM concentrations of pyruvate reduced viral plaques by 40-60% by increasing the synthesis of various cytokines. The combination of various antivirals with pyruvate totally eliminated the virus infection in cells. The inhalation of 5.0 mls of a 20 mM solution of sodium pyruvate used by itself reduced viral infections in a patient with sinusitis by 50%.

viral infections = assay: Inhaled sodium pyruvate in a patient with sinusitis, viral infections; assay type: in vivo, human; settings: inhalation of 5.0 mls of a 20 mM solution, used by itself; one patient
Method: as §1

Nc1nc2c(ncn2COCCO)c(=O)[nH]1 [Acyclovir, 9-[(2-hydroxyethyloxy)methyl]guanine]
Percentage of viral plaque reduction in virally infected cells (HSV-I infected cell; Acyclovir alone, therapeutic dose): 40%
viral plaque formation decreased (HSV-I infected cell): 60%

CC(=O)C(=O)[O-].[Na+] [sodium pyruvate]
levels of TNF-α ([1]; inhalation at 0.5 mM): did not increase
levels of white blood cells, elastase, IL-8, IL-6 ([1]; inhalation at 0.5 mM): reduced
total proteins, elastase, IL-6, IL-8, and TNF-α ([1]; inhalation of 5 ml of 0.5 mM): reduced
total proteins, elastase, IL-6, IL-8, and TNF-α ([1]; inhalation of 5 ml of 5 mM or higher): increased
levels of white blood cells elastase, IL-8, IL-6, IL-10 and TNF-α ([1]; inhalation of more than 5 mM in humans): increased
viral plaque formation decreased (HSV-I infected cell): 50%
effectiveness rated by the patients compared to the 20-40 mM solutions ([2]; 0.5 mM to 5 mM solutions): non-effective to less effective
rating by the patients ([2]; 40 mM solution): favorably rated
viral plaques reduced [3]: 40-60%
viral infections reduced (viral infections): 50%
